For assay [1], the system named is MZ-CRC-1 cell line. As to the kind of experiment: positron emission tomography (PET) of nude mice with MZ-CRC-1 tumor. As to conditions: nude mice (BALB/c) with tumor from MZ-CRC-1 cell line (FIG. 11A). In kind it is in vivo, mouse. The method, then:
(§1) Nude mice (BALB/c) were administered with the MZ-CRC-1 cell line (4×10^6 cells/mouse) to induce tumorigenesis, and administered with ^11C-acetate, followed by performing positron emission tomography (PET).

Assay [2] addresses T1, OR51E2 (Homo sapiens, UniProt Q9H255).
T1 sequence (Q9H255 1-320): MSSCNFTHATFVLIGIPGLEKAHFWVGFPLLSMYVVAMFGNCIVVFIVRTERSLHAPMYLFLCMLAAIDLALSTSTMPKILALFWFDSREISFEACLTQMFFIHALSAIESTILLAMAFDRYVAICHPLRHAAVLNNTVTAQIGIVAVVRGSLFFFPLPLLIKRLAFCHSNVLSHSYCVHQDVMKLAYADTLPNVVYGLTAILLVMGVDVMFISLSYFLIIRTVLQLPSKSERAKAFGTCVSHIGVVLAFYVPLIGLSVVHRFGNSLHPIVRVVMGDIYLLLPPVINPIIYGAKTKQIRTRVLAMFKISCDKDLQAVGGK
As to the kind of experiment: ^11C-acetate positron emission and CPM in thyroid cancer cell lines. More on the design: OR51E1 (olfactory receptor 51E1) and OR51E2 were highly expressed in MZ-CRC1 and TT cell lines as medullary thyroid cancer cell lines; endogenous in cells; host or cells: MZ-CRC-1 and TT medullary thyroid cancer cell lines. In kind it is cell-based. The method, then:
Thyroid cancer cell lines having different origins were treated with ^11C-acetate labeled with a radioactive isotope (20 μCi), and the degree of positron emission was identified. A control group was treated with F-18-fluorodeoxyglucose as the most commonly used radiopharmaceutical.

Assay [3] concerns the target T1, OR51E2. As to the kind of experiment: acetate binding competition experiment (CPM). Also on record: OR51E1 (olfactory receptor 51E1) and OR51E2 were highly expressed in MZ-CRC1 and TT cell lines as medullary thyroid cancer cell lines; endogenous in cells; host or cells: MZ-CRC-1 and TT medullary thyroid cancer cell lines. As to conditions: MZ-CRC-1 and TT cell lines. As for the experimental part: MZ-CRC-1 and TT cell lines as medullary thyroid cancer cell lines were treated with 100 μM cold acetate (acetate labeled with no radioactive isotope), and then treated with ^11C-acetate at concentrations of 2, 5, 10, 20, 40 and 60 μCi to measure CPM. In addition, MZ-CRC-1 and TT cell lines were treated with ^11C-acetate (20 μCi), and then treated with cold acetate at concentrations of 0, 20, 40, 80, 150 and 300 μM to measure CPM.

The test system of assay [4] is MZ-CRC-1 cell line. As to the kind of experiment: serum calcitonin in nude mice with MZ-CRC-1 tumor after ^11C-acetate. The format is in vivo, mouse. The conditions noted are these: nude mice (BALB/c) with tumor from MZ-CRC-1 cell line (FIG. 11B). The method, then:
as §1

For assay [5], the system named is OR51E2. Nature of the assay: CPM after ^11C-acetate treatment of OR51E2 knockout mice. The format is in vivo, mouse. The conditions noted are these: OR51E2 knockout mice compared with wild-type mice (FIG. 8D).
Assay [6] concerns the target T1, OR51E2. As to conditions: MZ-CRC-1 cell line, 100 μM acetate, stained after 1, 5 and 30 minutes (FIG. 10). The method, then:
To identify whether the binding of acetate and OR51E2 can be utilized in the diagnosis of thyroid cancer, the MZ-CRC-1 cell line (parafollicular C-cells) was treated with 100 μM of acetate, and the cells were stained after 1, 5 and 30 minutes to identify OR51E2.

In assay [7] the target is T1, OR51E2. As for the experimental part: (§2) Thereafter, the parafollicular C-cells were treated with acetate at each concentration and cultured, and then using a bromodeoxyuridine (BrdU) cell proliferation assay kit (Millipore, Mass.), the degree of BrdU binding was analyzed according to the manufacturer's protocol.
Assay [8] deals with parafollicular C-cells. The conditions noted are these: parafollicular C-cells treated with acetate at each concentration (FIG. 5A). The method, then: as §2
In assay [9] the test system is CREB (cAMP response element-binding protein). As to conditions: parafollicular C-cell line, acetate concentration series (FIG. 4B). As for the experimental part: (§3) Since OR51E1 and OR51E2 were highly expressed in the medullary thyroid cancer cell lines, MZ-CRC1 and TT cell lines as parafollicular C-cell lines were treated with acetate, nonanoic acid, propionate and azelaic acid as olfactory receptor ligands by 100 μM each to identify their influences.

For assay [10], the system named is intracellular cAMP. The conditions noted are these: parafollicular C-cell line, acetate treatment (FIG. 4C). As for the experimental part: as §3
Assay [11] deals with p42/44 MAPK. As for the experimental part:
as §3

In assay [12] the target is OR51E2 (Mus musculus, UniProt Q8VBV9). The conditions noted are these: wild-type mice, 30 minutes after injecting 100 μl of 99% acetate (FIG. 7B). The method, then: (§4) C57/BL6 mice in which a green fluorescent protein (GFP) was inserted into the OR51E2 gene loci were purchased (Jackson Laboratory, USA) and reared under sterile conditions. Through a week of acclimatization, the mice were each sacrificed 30 minutes after injecting 100 μl of 99% acetate thereto to separate the thyroid gland and serum. The thyroid gland was stained with calcitonin and a GFP antibody, respectively, and the calcitonin concentration was measured in the separated serum.

Assay [13] relates to OR51E2. As to conditions: OR51E2 knockout mice, 30 minutes after injecting 100 μl of 99% acetate (FIG. 7B). As for the experimental part: as §4

Two molecules from patent US20220111081A1, “COMPOSITION FOR TARGETING MEDULLARY THYROID CANCER” (University-Industry Foundation, Yonsei University, priority 2019, published 2022) can be followed below.

Sequence of OR51E2 (Mus musculus, UniProt Q8VBV9) (Q8VBV9 whole entry): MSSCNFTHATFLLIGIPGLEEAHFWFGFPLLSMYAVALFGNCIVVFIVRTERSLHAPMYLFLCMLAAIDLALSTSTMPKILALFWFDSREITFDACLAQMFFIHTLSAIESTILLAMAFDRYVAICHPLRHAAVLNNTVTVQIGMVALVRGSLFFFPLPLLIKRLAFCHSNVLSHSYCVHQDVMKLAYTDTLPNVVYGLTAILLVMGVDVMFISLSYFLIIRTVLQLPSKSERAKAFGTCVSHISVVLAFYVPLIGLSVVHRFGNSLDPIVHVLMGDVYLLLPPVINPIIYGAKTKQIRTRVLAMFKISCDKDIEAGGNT

Turning to `C[11C](=O)O` [^11C-acetate], the PET tracer accumulation result in assay [1] is “accumulated in the tumor-producing sites”. Besides, in assay [2] (medullary thyroid cancer cell line versus other thyroid cancer cell lines, 20 μCi (FIG. 8A)), the “level of positron emission” value was “high”. The “CPM (counter per minute)” value in [2] (medullary thyroid cancer cell line versus other thyroid cancer cell lines, 20 μCi (FIG. 8B)) is given as “highest”. Besides, the CPM entry is listed as “did not increase” in [2] (medullary thyroid cancer cell line with OR51E2 expression suppressed by siOR51E2 (FIG. 8C)); “increased as the treatment concentration increased” in assay [3] (first 100 μM cold acetate, then ^11C-acetate 2, 5, 10, 20, 40 and 60 μCi (FIG. 9A, 9B)); “did not increase” in assay [5]. Also, the “calcitonin concentration in the serum” value in assay [4] is “increased”.
Regarding `CC(=O)O` [acetate], in [6], the “location of OR51E2 (staining)” value is reported as “migrated into the cells”. Moreover, the release of calcitonin entry in assay [7] (expression of OR51E2 suppressed with siRNA, then acetate treatment (FIG. 5C)) was “not increased”. Further, the “intracellular expression level of calcitonin” value in [7] (parafollicular C-cell line, acetate treatment (FIG. 5B)) was “increased”. For the same molecule, the “cell proliferation (BrdU binding level)” value in [8] is “increased”. In addition, the CPM result in [3] (first ^11C-acetate 20 μCi, then cold acetate 0, 20, 40, 80, 150 and 300 μM (FIG. 9C, 9D)) is “decreased as the treatment concentration increased”. For the same molecule, in assay [9], the “phosphorylation level of CREB versus concentration” value was “increased in proportion to the acetate treatment concentration”. Moreover, in assay [10], the “level of intracellular cAMP” value is “increased”. Further, the “level of phosphorylation of p42/44 MAPK” value in assay [11] (MZ-CRC1 and TT cell lines, ligands 100 μM each (FIG. 4A)) is “increased”. Moreover, the “phosphorylation level of p42/44 MAPK versus concentration” value in assay [11] (parafollicular C-cell line, acetate concentration series (FIG. 4B)) is “increased in proportion to the acetate treatment concentration”. Besides, the entries for the “level of calcitonin in the serum” value in [12] and in assay [13] were “increased” and “maintained almost constant”, respectively.
